Source: PMC8822125, “RW-BP100-4D, a Promising Antimicrobial Candidate With Broad-Spectrum Bactericidal Activity” (Frontiers in Microbiology, 2022)
Where a SMILES comes first, the peptide text is derived from it.

Key:
[1] = system: Campylobacter jejuni ATCC33291; conditions: mean of three repeated experiments
Procedure: (§1) To compare the antibacterial activity of RW-BP100 and its serial derivatives, the MIC against S. aureus ATCC29213 and E. coli ATCC25922 were determined using broth microdilution method according to the guidelines of Clinical and Laboratory Standards Institute (CLSI) M100-S25 ([CLSI, 2015]). Briefly, peptides were dissolved in sterilized water and twofold diluted in Mueller-Hinton (MH) broth (Beijing Land Bridge Technology) at the concentration ranges of 0.098–100 μg/mL. Then the peptides were mixed with an equal volume (100 μL) of bacterial suspensions of 10^6 CFU/mL in a sterilized 96-well microtiter plate. […] To further evaluate the antimicrobial spectrum of RW-BP100-4D, MICs were determined against a more variety of Gram-positive and Gram-negative bacterial species, and the fungal strains (according to CLSI M38 guideline). […] MIC and MBC testing were performed with three independent repeats.

[2] = system: Pseudomonas fluorescens AC04; conditions: mean of three repeated experiments
Procedure: as §1

[3] = system: Acinetobacter baumannii 34AB; conditions: Acinetobacter baumannii 34AB (tet(X3)); mean of three repeated experiments
Procedure: as §1

[4] = system: Streptococcus agalactiae ATCC13813; conditions: mean of three repeated experiments
Procedure: as §1

[5] = system: Shewanella putrefaction ATCC49138; conditions: mean of three repeated experiments
Procedure: as §1

[6] = system: Enterococcus faecalis 32; conditions: Enterococcus faecalis 32 (optrA); mean of three repeated experiments
Procedure: as §1

[7] = system: Listeria monocytogenes ATCC19115; conditions: mean of three repeated experiments
Procedure: as §1

[8] = system: Staphylococcus epidermidis ATCC29887; conditions: mean of three repeated experiments
Procedure: as §1

[9] = system: Listeria monocytogenes LM08; conditions: Listeria monocytogenes LM08 (tetM); mean of three repeated experiments
Procedure: as §1

[10] = system: Klebsiella pneumoniae XG-Kpn03; conditions: Klebsiella pneumoniae XG-Kpn03 (blaNDM-5); mean of three repeated experiments
Procedure: as §1

[11] = system: Escherichia coli XG-E1; conditions: Escherichia coli XG-E1 (blaNDM-5, mcr-1); mean of three repeated experiments
Procedure: as §1

[12] = system: Enterococcus faecalis JH2-2; conditions: mean of three repeated experiments
Procedure: as §1

[13] = system: Salmonella enterica ATCC13076; conditions: mean of three repeated experiments
Procedure: as §1

[14] = system: Pseudomonas aeruginosa 42; conditions: mean of three repeated experiments
Procedure: as §1

For `CC[C@H](C)[C@H](NC(=O)[C@H](CCCNC(=N)N)NC(=O)[C@H](CCCNC(=N)N)NC(=O)[C@@H](Cc1ccccc1)NC(=O)[C@H](CC(C)C)NC(=O)[C@H](CCCNC(=N)N)NC(=O)[C@@H](N)CCCNC(=N)N)C(=O)N[C@@H](CC(C)C)C(=O)N[C@@H](CCCNC(=N)N)C(=O)N[C@@H](Cc1c[nH]c2ccccc12)C(=O)N[C@@H](CC(C)C)C(N)=O` [RW-BP100-4D] (HELM PEPTIDE1{R.R.L.[dF].R.R.I.L.R.W.L.[am]}$$$$V2.0), the MBC of peptides [1] was 12 µg/mL, the MIC of peptides [1] was 6 µg/mL and the MBC of peptides [2] was 12 µg/mL. It also gave an MIC of peptides [2] of 6 µg/mL, an MBC of peptides [3] of 12 µg/mL and an MIC of peptides [3] of 6 µg/mL. For the same compound, the MBC of peptides [4] was 6 µg/mL, the MIC of peptides [4] was 3 µg/mL and the MBC of peptides [5] was 12 µg/mL. The MIC of peptides [5] was 6 µg/mL, the MBC of peptides [6] was 50 µg/mL and the MIC of peptides [6] was 12 µg/mL. For the same compound, the MBC of peptides [7] was 6 µg/mL, the MIC of peptides [7] was 3 µg/mL and the MBC of peptides [8] was 6 µg/mL. For the same compound, the MIC of peptides [8] was 3 µg/mL, the MBC of peptides [9] was 6 µg/mL and the MIC of peptides [9] was 3 µg/mL. For the same compound, the MBC of peptides [10] was 50 µg/mL, the MIC of peptides [10] was 25 µg/mL and the MBC of peptides [11] was 6 µg/mL. The MIC of peptides [11] was 3 µg/mL, the MBC of peptides [12] was 50 µg/mL and the MIC of peptides [12] was 12 µg/mL. The MBC of peptides [13] was 6 µg/mL, the MIC of peptides [13] was 3 µg/mL and the MBC of peptides [14] was 50 µg/mL. It also gave an MIC of peptides [14] of 12 µg/mL.
